According to PubChem BioAssay AID2060912 (Molecular Pharmacology Branch, DTP, NCI, 2025):

System: HUVEC/MSC spheroids viability
Test: Human HUVEC/MSC cell line growth inhibition [KRAS2];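 for viability, T/C: percent of DMSO vehicle control luminescence so 100% = untreated viability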
Conditions: for IC50: curve of first compound; for viability, T/C: stronger effect = lower value
Procedure, shortened: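 Endothelial cells (HUVEC) plus mesenchymal stem cells, cultured at 37 °C/5% CO2 and assembled into spheroids without cancer cells, served as a stromal control. Drug pairs and single agents spanned half-log ranges anchored to clinical Cmax.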

[1] = second compound 0.0316 µM, first compound 0.00949 µM
[2] = second compound 0.0316 µM, first compound 0.03 µM
[3] = second compound 0.0316 µM, first compound 0.0949 µM
[4] = second compound 0.0316 µM, first compound 0.3 µM
[5] = second compound 0.0316 µM, first compound 0.949 µM
[6] = second compound 0.0316 µM, first compound 3 µM
[7] = second compound 0.1 µM, first compound 0.00949 µM
[8] = second compound 0.1 µM, first compound 0.03 µM
[9] = second compound 0.1 µM, first compound 0.0949 µM
[10] = second compound 0.1 µM, first compound 0.3 µM
[11] = second compound 0.1 µM, first compound 0.949 µM
[12] = second compound 0.1 µM, first compound 3 µM
[13] = second compound 0.316 µM, first compound 0.00949 µM
[14] = second compound 0.316 µM, first compound 0.03 µM
[15] = second compound 0.316 µM, first compound 0.0949 µM
[16] = second compound 0.316 µM, first compound 0.3 µM
[17] = second compound 0.316 µM, first compound 0.949 µM
[18] = second compound 0.316 µM, first compound 3 µM
[19] = second compound 1 µM, first compound 0.00949 µM
[20] = second compound 1 µM, first compound 0.03 µM
[21] = second compound 1 µM, first compound 0.0949 µM
[22] = second compound 1 µM, first compound 0.3 µM
[23] = second compound 1 µM, first compound 0.949 µM
[24] = second compound 1 µM, first compound 3 µM
[25] = second compound 3.16 µM, first compound 0.00949 µM
[26] = second compound 3.16 µM, first compound 0.03 µM
[27] = second compound 3.16 µM, first compound 0.0949 µM
[28] = second compound 3.16 µM, first compound 0.3 µM
[29] = second compound 3.16 µM, first compound 0.949 µM
[30] = second compound 3.16 µM, first compound 3 µM
[31] = second compound 10 µM, first compound 0.00949 µM
[32] = second compound 10 µM, first compound 0.03 µM
[33] = second compound 10 µM, first compound 0.0949 µM
[34] = second compound 10 µM, first compound 0.3 µM
[35] = second compound 10 µM, first compound 0.949 µM
[36] = second compound 10 µM, first compound 3 µM
[37] = second compound 0.0316 µM, first compound 0.0316 µM
[38] = second compound 0.0316 µM, first compound 0.1 µM
[39] = second compound 0.0316 µM, first compound 0.316 µM
[40] = second compound 0.0316 µM, first compound 1 µM
[41] = second compound 0.0316 µM, first compound 3.16 µM
[42] = second compound 0.0316 µM, first compound 10 µM
[43] = second compound 0.1 µM, first compound 0.0316 µM
[44] = second compound 0.1 µM, first compound 0.1 µM
[45] = second compound 0.1 µM, first compound 0.316 µM
[46] = second compound 0.1 µM, first compound 1 µM
[47] = second compound 0.1 µM, first compound 3.16 µM
[48] = second compound 0.1 µM, first compound 10 µM
[49] = second compound 0.316 µM, first compound 0.0316 µM
[50] = second compound 0.316 µM, first compound 0.1 µM
[51] = second compound 0.316 µM, first compound 0.316 µM
[52] = second compound 0.316 µM, first compound 1 µM
[53] = second compound 0.316 µM, first compound 3.16 µM
[54] = second compound 0.316 µM, first compound 10 µM
[55] = second compound 1 µM, first compound 0.0316 µM
[56] = second compound 1 µM, first compound 0.1 µM
[57] = second compound 1 µM, first compound 0.316 µM
[58] = second compound 1 µM, first compound 1 µM
[59] = second compound 1 µM, first compound 3.16 µM
[60] = second compound 1 µM, first compound 10 µM
[61] = second compound 3.16 µM, first compound 0.0316 µM
[62] = second compound 3.16 µM, first compound 0.1 µM
[63] = second compound 3.16 µM, first compound 0.316 µM
[64] = second compound 3.16 µM, first compound 1 µM
[65] = second compound 3.16 µM, first compound 3.16 µM
[66] = second compound 3.16 µM, first compound 10 µM
[67] = second compound 10 µM, first compound 0.0316 µM
[68] = second compound 10 µM, first compound 0.1 µM
[69] = second compound 10 µM, first compound 0.316 µM
[70] = second compound 10 µM, first compound 1 µM
[71] = second compound 10 µM, first compound 3.16 µM
[72] = second compound 10 µM, first compound 10 µM

CC1COCCN1c1cc(-c2ccnn2C)c2ccnc(-c3ccn[nH]3)c2n1 (stereo not drawn) + CC1OCC2(CCN(c3cnc(Sc4ccnc(N)c4Cl)c(N)n3)CC2)C1N
IC50 (second compound 0.0316 µM): > 3000 nM | IC50 (second compound 0.1 µM): 2640 nM | IC50 (second compound 0.316 µM): 1900 nM | IC50 (second compound 1 µM): 2050 nM | IC50 (second compound 3.16 µM): 679 nM | IC50 (second compound 10 µM): 760 nM | viability, T/C [1]: 97.8% | viability, T/C [2]: 99.4% | viability, T/C [3]: 82.6% | viability, T/C [4]: 72.4% | viability, T/C [5]: 64.5% | viability, T/C [6]: 51.5% | viability, T/C [7]: 95.8% | viability, T/C [8]: 95.7% | viability, T/C [9]: 83.4% | viability, T/C [10]: 80.4% | viability, T/C [11]: 62.1% | viability, T/C [12]: 48.6% | viability, T/C [13]: 105% | viability, T/C [14]: 101% | viability, T/C [15]: 78.9% | viability, T/C [16]: 64.3% | viability, T/C [17]: 55.3% | viability, T/C [18]: 46.4% | viability, T/C [19]: 82.6% | viability, T/C [20]: 94.7% | viability, T/C [21]: 78.3% | viability, T/C [22]: 74.5% | viability, T/C [23]: 61.6% | viability, T/C [24]: 44.4% | viability, T/C [25]: 84.7% | viability, T/C [26]: 90.5% | viability, T/C [27]: 69.1% | viability, T/C [28]: 63.7% | viability, T/C [29]: 45% | viability, T/C [30]: 32.9% | viability, T/C [31]: 56.2% | viability, T/C [32]: 65.5% | viability, T/C [33]: 61.7% | viability, T/C [34]: 58.2% | viability, T/C [35]: 48% | viability, T/C [36]: 24.7%

CCNC(=O)CC1N=C(c2ccc(Cl)cc2)c2cc(OC)ccc2-n2c(C)nnc21 (stereo not drawn) + CC1OCC2(CCN(c3cnc(Sc4ccnc(N)c4Cl)c(N)n3)CC2)C1N
IC50 (second compound 0.0316 µM): > 10000 nM | IC50 (second compound 0.1 µM): > 10000 nM | IC50 (second compound 0.316 µM): > 10000 nM | IC50 (second compound 1 µM): > 10000 nM | IC50 (second compound 3.16 µM): > 10000 nM | IC50 (second compound 10 µM): 3020 nM | viability, T/C [37]: 79.7% | viability, T/C [38]: 102% | viability, T/C [39]: 99.2% | viability, T/C [40]: 87.5% | viability, T/C [41]: 110% | viability, T/C [42]: 89.4% | viability, T/C [43]: 107% | viability, T/C [44]: 86.2% | viability, T/C [45]: 102% | viability, T/C [46]: 91.8% | viability, T/C [47]: 99% | viability, T/C [48]: 95.3% | viability, T/C [49]: 90.6% | viability, T/C [50]: 88.6% | viability, T/C [51]: 87.1% | viability, T/C [52]: 88.2% | viability, T/C [53]: 88% | viability, T/C [54]: 84.1% | viability, T/C [55]: 79.3% | viability, T/C [56]: 97.8% | viability, T/C [57]: 76.6% | viability, T/C [58]: 68.4% | viability, T/C [59]: 77.2% | viability, T/C [60]: 58.8% | viability, T/C [61]: 83.5% | viability, T/C [62]: 103% | viability, T/C [63]: 81.4% | viability, T/C [64]: 73.8% | viability, T/C [65]: 66% | viability, T/C [66]: 51.3% | viability, T/C [67]: 66% | viability, T/C [68]: 64.5% | viability, T/C [69]: 77.8% | viability, T/C [70]: 64% | viability, T/C [71]: 49.6% | viability, T/C [72]: 30%

Cn1nccc1Nc1nccc(-c2cc3c(s2)C(C)(C)N(CCN2CCOCC2)C3=O)n1 + CC1OCC2(CCN(c3cnc(Sc4ccnc(N)c4Cl)c(N)n3)CC2)C1N
IC50 (second compound 0.0316 µM): 2080 nM | IC50 (second compound 0.1 µM): 2730 nM | IC50 (second compound 0.316 µM): 2530 nM | IC50 (second compound 1 µM): 1740 nM | IC50 (second compound 3.16 µM): 1350 nM | IC50 (second compound 10 µM): 430 nM | viability, T/C [37]: 105% | viability, T/C [38]: 127% | viability, T/C [39]: 108% | viability, T/C [40]: 78% | viability, T/C [41]: 34.5% | viability, T/C [42]: 7.19% | viability, T/C [43]: 117% | viability, T/C [44]: 127% | viability, T/C [45]: 124% | viability, T/C [46]: 96.3% | viability, T/C [47]: 43.8% | viability, T/C [48]: 6.82% | viability, T/C [49]: 112% | viability, T/C [50]: 120% | viability, T/C [51]: 105% | viability, T/C [52]: 78.8% | viability, T/C [53]: 44.2% | viability, T/C [54]: 5.45% | viability, T/C [55]: 95.9% | viability, T/C [56]: 97.6% | viability, T/C [57]: 107% | viability, T/C [58]: 60.7% | viability, T/C [59]: 34.6% | viability, T/C [60]: 4.73% | viability, T/C [61]: 79.7% | viability, T/C [62]: 90.2% | viability, T/C [63]: 80.3% | viability, T/C [64]: 57.7% | viability, T/C [65]: 25.5% | viability, T/C [66]: 8.64% | viability, T/C [67]: 73% | viability, T/C [68]: 67.4% | viability, T/C [69]: 56.1% | viability, T/C [70]: 34.2% | viability, T/C [71]: 21.5% | viability, T/C [72]: 4.23%

CC(=O)OC12COC1CC(O)C1(C)C(=O)C(O)C3=C(C)C(OC(=O)C(O)C(NC(=O)OC(C)(C)C)c4ccccc4)CC(O)(C(OC(=O)c4ccccc4)C21)C3(C)C (stereo not drawn) + CNCc1ccccc1-c1csc(C(C)Nc2nc(C)nc3cc(OC)c(OC)cc23)c1
IC50 (second compound 0.0316 µM): < 9.49 nM | IC50 (second compound 0.1 µM): < 9.49 nM | IC50 (second compound 0.316 µM): 39.6 nM | IC50 (second compound 1 µM): > 3000 nM | IC50 (second compound 3.16 µM): > 3000 nM | IC50 (second compound 10 µM): < 9.49 nM | viability, T/C [1]: 40.6% | viability, T/C [2]: 40.6% | viability, T/C [3]: 49.7% | viability, T/C [4]: 53% | viability, T/C [5]: 49.1% | viability, T/C [6]: 54.2% | viability, T/C [7]: 44.2% | viability, T/C [8]: 43.3% | viability, T/C [9]: 51.8% | viability, T/C [10]: 45.1% | viability, T/C [11]: 42.9% | viability, T/C [12]: 50% | viability, T/C [13]: 44.8% | viability, T/C [14]: 56.5% | viability, T/C [15]: 54.6% | viability, T/C [16]: 43.3% | viability, T/C [17]: 48.8% | viability, T/C [18]: 49% | viability, T/C [19]: 47.3% | viability, T/C [20]: 62.2% | viability, T/C [21]: 68.9% | viability, T/C [22]: 54.3% | viability, T/C [23]: 55.4% | viability, T/C [24]: 61.9% | viability, T/C [25]: 78.1% | viability, T/C [26]: 73.5% | viability, T/C [27]: 73.8% | viability, T/C [28]: 77.6% | viability, T/C [29]: 76.8% | viability, T/C [30]: 56.7% | viability, T/C [31]: 0.32% | viability, T/C [32]: 0.36% | viability, T/C [33]: 0.39% | viability, T/C [34]: 0.34% | viability, T/C [35]: 0.34% | viability, T/C [36]: 1.75%
